From patent US20170050957A1, “4-AMINO-6-(HETEROCYCLIC)PICOLINATES AND 6-AMINO-2-(HETEROCYCLIC)PYRIMIDINE-4-CARBOXYLATES AND THEIR USE AS HERBICIDES” (Dow AgroSciences LLC, priority 2013, published 2017)
Like-named read-outs stand apart in the source and are kept apart here.

Columns and labels:
[1] = test system: Key Grass and Sedge Weeds as well as Grass Crops; experiment: Post-emergent Test II herbicidal activity (Table 16); type: in vivo; settings: post-emergence, 336 h, 14 d; for pest or weed control at 35 g/ha: 35 g ai/ha; for pest or weed control at 70 g/ha: 70 g ai/ha; for pest or weed control at 140 g/ha: 140 g ai/ha
Procedure, shortened: (§1)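 Plants grown in greenhouse (~15 h photoperiod, 23-29 °C day, 22-28 °C night) to first or second true leaf stage, then sprayed post-emergence at 187 L/ha with a high rate and 1/2×, 1/4×, 1/8× and 1/16× dilutions. Injury scored visually after 14 d, 0-100% versus untreated plants.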

[2] = test system: Key Broadleaf Weed and Crop Species; experiment: Post-emergent Test II herbicidal activity (Table 15); type: in vivo; settings: post-emergence, 336 h, 14 d; for pest or weed control at 35 g/ha: 35 g ai/ha; for pest or weed control at 70 g/ha: 70 g ai/ha; for pest or weed control at 140 g/ha: 140 g ai/ha
Procedure, shortened: as §1

[3] = Cyperus esculentus, yellow nutsedge (Cyperus esculentus), read-out: Visual Growth Reduction (%) 14 Days After Application, CYPES
[4] = Echinochloa crus-galli, barnyardgrass (Echinochloa crus-galli), read-out: Visual Growth Reduction (%) 14 Days After Application, ECHCG
[5] = Oryza sativa, rice (Oryza sativa), read-out: Visual Growth Reduction (%) 14 Days After Application, ORYSA
[6] = Setaria faberi, giant foxtail (Setaria faberi), read-out: Visual Growth Reduction (%) 14 Days After Application, SETFA
[7] = Triticum aestivum, wheat, spring (Triticum aestivum), read-out: Visual Growth Reduction (%) 14 Days After Application, TRZAS
[8] = Zea mays, maize, corn (Zea mays), read-out: Visual Growth Reduction (%) 14 Days After Application, ZEAMX
[9] = Abutilon theophrasti, velvetleaf (Abutilon theophrasti), read-out: Visual Growth Reduction (%) 14 Days After Application, ABUTH
[10] = Amaranthus retroflexus, redroot pigweed (Amaranthus retroflexus), read-out: Visual Growth Reduction (%) 14 Days After Application, AMARE
[11] = Brassica napus, oilseed rape, canola (Brassica napus), read-out: Visual Growth Reduction (%) 14 Days After Application, BRSNN
[12] = Chenopodium album, lambsquarters (Chenopodium album), read-out: Visual Growth Reduction (%) 14 Days After Application, CHEAL
[13] = Euphorbia heterophylla, wild poinsettia (Euphorbia heterophylla), read-out: Visual Growth Reduction (%) 14 Days After Application, EPHHL
[14] = Helianthus annuus, sunflower (Helianthus annuus), read-out: Visual Growth Reduction (%) 14 Days After Application, HELAN

melting point [°C] | Compound | pest or weed control at 35 g/ha [1, 3] [%] | pest or weed control at 70 g/ha [1, 3] [%] | pest or weed control at 140 g/ha [1, 3] [%] | pest or weed control at 35 g/ha [1, 4] [%] | pest or weed control at 70 g/ha [1, 4] [%] | pest or weed control at 140 g/ha [1, 4] [%] | pest or weed control at 35 g/ha [1, 5] [%] | pest or weed control at 70 g/ha [1, 5] [%] | pest or weed control at 140 g/ha [1, 5] [%] | pest or weed control at 35 g/ha [1, 6] [%] | pest or weed control at 70 g/ha [1, 6] [%] | pest or weed control at 140 g/ha [1, 6] [%] | pest or weed control at 35 g/ha [1, 7] [%] | pest or weed control at 70 g/ha [1, 7] [%] | pest or weed control at 140 g/ha [1, 7] [%] | pest or weed control at 35 g/ha [1, 8] [%] | pest or weed control at 70 g/ha [1, 8] [%] | pest or weed control at 140 g/ha [1, 8] [%] | pest or weed control at 35 g/ha [2, 9] [%] | also measured
178 | COC(=O)c1nc(-c2ccc3ccoc3c2F)nc(N)c1OC [Compound 2.13] | 30 to 44 | 85 to 94 | 85 to 94 | 75 to 84 | 95 to 100 | 95 to 100 | 0 to 29 | 30 to 44 | 30 to 44 | 0 to 29 | 45 to 59 | 60 to 74 | 0 to 29 | 45 to 59 | 45 to 59 | 0 to 29 | 30 to 44 | 45 to 59 | 95 to 100 | pest or weed control at 70 g/ha [2, 9]: 95 to 100%; pest or weed control at 140 g/ha [2, 9]: 95 to 100%; pest or weed control at 35 g/ha [2, 10]: 60 to 74%; pest or weed control at 70 g/ha [2, 10]: 95 to 100%; pest or weed control at 140 g/ha [2, 10]: 95 to 100%; pest or weed control at 35 g/ha [2, 11]: 95 to 100%; pest or weed control at 70 g/ha [2, 11]: 95 to 100%; pest or weed control at 140 g/ha [2, 11]: 95 to 100%; pest or weed control at 35 g/ha [2, 12]: 95 to 100%; pest or weed control at 70 g/ha [2, 12]: 95 to 100%; pest or weed control at 140 g/ha [2, 12]: 95 to 100%; pest or weed control at 35 g/ha [2, 13]: 95 to 100%; pest or weed control at 70 g/ha [2, 13]: 95 to 100%; pest or weed control at 140 g/ha [2, 13]: 95 to 100%; pest or weed control at 35 g/ha [2, 14]: 75 to 84%; pest or weed control at 70 g/ha [2, 14]: 85 to 94%; pest or weed control at 140 g/ha [2, 14]: 95 to 100%
153 | COC(=O)c1nc(-c2cc3occc3cc2F)nc(N)c1OC [Compound 2.14] | 0 to 29 | 0 to 29 | 0 to 29 | 0 to 29 | 0 to 29 | 75 to 84 | 0 to 29 | 0 to 29 | 0 to 29 | 0 to 29 | 0 to 29 | 0 to 29 | 0 to 29 | 0 to 29 | 0 to 29 | 0 to 29 | 0 to 29 | 0 to 29 | 0 to 29 | pest or weed control at 70 g/ha [2, 9]: 0 to 29%; pest or weed control at 140 g/ha [2, 9]: 0 to 29%; pest or weed control at 35 g/ha [2, 10]: 95 to 100%; pest or weed control at 70 g/ha [2, 10]: 95 to 100%; pest or weed control at 140 g/ha [2, 10]: 95 to 100%; pest or weed control at 35 g/ha [2, 11]: 95 to 100%; pest or weed control at 70 g/ha [2, 11]: 95 to 100%; pest or weed control at 140 g/ha [2, 11]: 95 to 100%; pest or weed control at 35 g/ha [2, 12]: 85 to 94%; pest or weed control at 70 g/ha [2, 12]: 95 to 100%; pest or weed control at 140 g/ha [2, 12]: 95 to 100%; pest or weed control at 35 g/ha [2, 13]: 85 to 94%; pest or weed control at 70 g/ha [2, 13]: 95 to 100%; pest or weed control at 140 g/ha [2, 13]: 95 to 100%; pest or weed control at 35 g/ha [2, 14]: 60 to 74%; pest or weed control at 70 g/ha [2, 14]: 85 to 94%; pest or weed control at 140 g/ha [2, 14]: 95 to 100%
100 to 103 | COC(=O)c1nc(-c2cccc3occc23)c(F)c(N)c1Cl [Compound 2.15] | 0 to 29 | 0 to 29 | 0 to 29 | 0 to 29 | 45 to 59 | 75 to 84 | 0 to 29 | 0 to 29 | 0 to 29 | 0 to 29 | 0 to 29 | 0 to 29 | 0 to 29 | 0 to 29 | 0 to 29 | 95 to 100 | 95 to 100 | 95 to 100 | 45 to 59 | pest or weed control at 70 g/ha [2, 9]: 75 to 84%; pest or weed control at 140 g/ha [2, 9]: 95 to 100%; pest or weed control at 35 g/ha [2, 10]: 95 to 100%; pest or weed control at 70 g/ha [2, 10]: 95 to 100%; pest or weed control at 140 g/ha [2, 10]: 95 to 100%; pest or weed control at 35 g/ha [2, 11]: 45 to 59%; pest or weed control at 70 g/ha [2, 11]: 75 to 84%; pest or weed control at 140 g/ha [2, 11]: 85 to 94%; pest or weed control at 35 g/ha [2, 12]: 95 to 100%; pest or weed control at 70 g/ha [2, 12]: 95 to 100%; pest or weed control at 140 g/ha [2, 12]: 95 to 100%; pest or weed control at 35 g/ha [2, 13]: 0 to 29%; pest or weed control at 70 g/ha [2, 13]: 0 to 29%; pest or weed control at 140 g/ha [2, 13]: 0 to 29%; pest or weed control at 35 g/ha [2, 14]: 45 to 59%; pest or weed control at 70 g/ha [2, 14]: 75 to 84%; pest or weed control at 140 g/ha [2, 14]: 75 to 84%
